Results reported in US20080275018A1, “ANTIBACTERIAL AMIDE-MACROCYCLES V” (AiCuris GmbH & Co. KG, priority 2005, published 2008).

What was measured:
[1] = biological target: S. aureus 133 Translation; experiment: S. aureus in vitro transcription-translation assay (firefly luciferase, S30 extract); format: biochemical; conditions: 50% inhibition of the translation of firefly luciferase
Description: For the construction of a reporter plasmid which can be used in an in vitro transcription-translation assay from S. aureus the plasmid pBESTluc (Promega Corporation, USA) is used. The E. coli tac promoter present in this plasmid in front of the firefly luciferase is replaced by the capA1 promoter with corresponding Shine-Dalgarno sequence from S. aureus. The primers CAPFor 5′-[…]-[…] GCCA-3′ and CAPRev 5′-[…]-3′ are used for this. The primer CAPFor contains the capA1 promoter, the ribosome binding site and the 5′ region of the luciferase gene. After PCR using pBESTluc as template it is possible to isolate a PCR product which contains the firefly luciferase gene with the fused capA1 promoter. This is, after restriction with ClaI and HindIII, ligated into the vector pBESTluc which has likewise been digested with ClaI and HindIII. The resulting plasmid pla can be replicated in E. coli and be used as template in the S. aureus in vitro transcription-translation test.
Six litres of BHI medium are inoculated with a 250 ml overnight culture of an S. aureus Strain and allowed to grow at 37° C. until the OD600 nm is 2-4. The cells are harvested by centrifugation and washed in 500 ml of cold buffer A (10 mM Tris acetate, pH 8.0, 14 mM magnesium acetate, 1 mM DTT, 1 M KCl). After renewed centrifugation, the cells are washed in 250 ml of cold buffer A with 50 mM KCl, and the resulting pellets are frozen at −20° C. for 60 min. The pellets are thawed on ice in 30 to 60 min and taken up to a total volume of 99 ml in buffer B (10 mM Tris acetate, pH 8.0, 20 mM magnesium acetate, 1 mM DTT, 50 mM KCl). 1.5 ml portions of lysostaphin (0.8 mg/ml) in buffer B are provided in 3 precooled centrifuge cups and each mixed with 33 ml of the cell suspension. The samples are incubated at 37° C., shaking occasionally, for 45 to 60 min, before 150 μl of a 0.5 M DTT solution are added. The lysed cells are centrifuged at 30 000×g and 4° C. for 30 min. The cell pellet is taken up in buffer B and then centrifuged again under the same conditions, and the collected supernatants are combined. The supernatants are centrifuged again under the same conditions, and 0.25 volumes of buffer C (670 mM Tris acetate, pH 8.0, 20 mM magnesium acetate, 7 mM Na3 phosphoenolpyruvate, 7 mM DTT, 5.5 mM ATP, 70 μM amino acids (complete from Promega), 75 μg of pyruvate kinase (Sigma, Germany)/ml are added to the upper ⅔ of the supernatant. The samples are incubated at 37° C. for 30 min. The supernatants are dialysed against 2 l of dialysis buffer (10 mM Tris acetate, pH 8.0, 14 mM magnesium acetate, 1 mM DTT, 60 mM potassium acetate) in a dialysis tube with a 3500 Da cut-off with one buffer change at 4° C. overnight. The dialysate is concentrated to a protein concentration of about 10 mg/ml by
covering the dialysis tube with cold PEG 8000 powder (Sigma, Germany) at 4° C. The S30 extracts can be stored in aliquots at −70° C.
The inhibition of protein biosynthesis of the compounds can be shown in an in vitro transcription-translation assay. The assay is based on the cell-free transcription and translation of firefly luciferase using the reporter plasmid pla as template and cell-free S30 extracts obtained from S. aureus. The activity of the resulting luciferase can be detected by luminescence measurement.
The amount of S30 extract or plasmid pla to be employed must be tested anew for each preparation in order to ensure an optimal concentration in the test. […] of the substance to be tested, dissolved in 5% DMSO, are introduced into an MTP. Then […] of a suitably concentrated plasmid solution pla are added. […]

S. aureus RN4220Bi^R = experiment: MIC against biphenomycin-resistant S. aureus RN4220Bi^R; format: cell-based, Staphylococcus aureus; conditions: colony grown on the antibiotic-containing plate
Method: (§1) The S. aureus Strain RN4220BiR^R is isolated in vitro. For this purpose, 100 μl portions of an S. aureus RN4220 cell suspension (about 1.2×10^8 cfu/ml) are plated out on an antibiotic-free agar plate (18.5 mM Na2HPO4, 5.7 mM KH2PO4, 9.3 mM NH4Cl, 2.8 mM MgSO4, 17.1 mM NaCl, 0.033 μg/ml thiamine hydrochloride, 1.2 μg/ml nicotinic acid, 0.003 μg/ml biotin, 1% glucose, 25 μg/ml of each proteinogenic amino acid with the addition of 0.4% BH broth and 1% agarose) and on an agar plate containing 2 μg/ml biphenomycin B (10×MIC), and incubated at 37° C. overnight. Whereas about 1×10^7 cells grow on the antibiotic-free plate, about 100 colonies grow on the antibiotic-containing plate, corresponding to a resistance rate of 1×10^−5. Some of the colonies grown on the antibiotic-containing plate are tested for the biphenomycin B MIC. One colony with an MIC of >50 μM is selected for further use, and the strain is referred to as RN4220Bi^R.

S. aureus RN4220 = experiment: Resistance rate of S. aureus RN4220 on agar containing biphenomycin B; format: cell-based, Staphylococcus aureus; conditions: S. aureus RN4220, agar plate containing 2 μg/ml biphenomycin B (10×MIC), 37° C. overnight
Method: as §1

Question: With `NC[C@H](O)C[C@@H]1NC(=O)[C@@H](N)Cc2cc(ccc2O)-c2ccc(O)c(c2)C[C@@H](C(=O)O)NC1=O` [Biphenomycin B, biphenomycin B, reference compound] as the compound, how does the IC50 [1] read?
Answer: 1500 nM

Question: What about the “MIC of selected colony (strain RN4220Bi^R)” value (S. aureus RN4220Bi^R) of the same compound?
Answer: > 50 µM

Question: And the resistance rate (S. aureus RN4220)?
Answer: 1×10^−5
